What is called IC50 is the concentration needed to halve the response being measured. By GI50 is commonly meant the concentration at which growth is held to half of that of the control.

For experiment [1], the target named is BRD4 (His-Brd4(44-477)) (Homo sapiens (Human), UniProt O60885). In words: TR-FRET in-vitro binding assay for BRD4. To be noted: single determination or n ≧ 2 independent determinations, read-out: Biochemical IC50 BRD4. The method in brief:
(§1)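 Compounds were serially diluted over eight concentrations and added to wells. TR-FRET signal was then measured.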
For orientation: In TR-FRET formats the signal depends on donor and acceptor labels being close together.

Experiment [2] has as its target BRD2 (His-Brd2(60-472)) (Homo sapiens (Human), UniProt P25440). As to the kind of experiment: TR-FRET in-vitro binding assay for BRD2. To be noted: single determination or n ≧ 2 independent determinations, read-out: Biochemical IC50 BRD2. The gist of the method: as §1
The test system of experiment [3] is K-562 cells. As to the kind of experiment: Cell growth inhibition assay (CellTiter-Glo), K-562.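 As to all read-outs here: cellular ATP measured by luminescence after 4 days of exposure, 3-fold dilution series from 10 µM, DMSO vehicle-treated cells define 100%, cell-free medium wells −100%.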 To be noted: for GI50: Homo sapiens, K562, read-out: K-562 GI50; for K-562 TGI: K-562 cells, total growth inhibition, CellTiter-Glo. Background: ATP-based viability assays read luminescence as a measure of living cells.
For experiment [4], the system named is THP-1 cells. In words: Cell growth inhibition assay (CellTiter-Glo), THP-1.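 As to all read-outs here: viability read as cellular ATP luminescence after 4 days, 3-fold dilution series from 10 µM, DMSO vehicle-treated cells taken as 100%, cell-free medium wells as −100%.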 To be noted: for GI50: Homo sapiens, THP-1, read-out: THP-1 GI50; for THP-1 TGI: THP-1 cells, total growth inhibition, CellTiter-Glo.
For experiment [5], the target named is BRD3 (His-Brd3(20-477)) (Homo sapiens (Human), UniProt Q15059). As to the kind of experiment: TR-FRET in-vitro binding assay for BRD3. To be noted: single determination or n ≧ 2 independent determinations, read-out: Biochemical IC50 BRD3. The method in brief: as §1
Experiment [6] relates to MV-4-11 cells. As to the kind of experiment: Cell growth inhibition assay (CellTiter-Glo), MV-4-11.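 As to all read-outs here: cellular ATP luminescence after 4 days, 3-fold dilution series from 10 µM top dose, vehicle (0.1% DMSO) set to 100%, cell-free medium set to −100%, day 0 corrected.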 To be noted: for GI50: Homo sapiens, MV4-11, read-out: MV-4-11 GI50; for MV-4-11 TGI: MV-4-11 cells, total growth inhibition, CellTiter-Glo.
Experiment [7] deals with CREBBP bromodomain (His-CREBBP(1081-1197)) (Homo sapiens (Human), UniProt Q92793). In words: AlphaScreen in-vitro binding assay for CREBBP. To be noted: single determination or n ≧ 2 independent determinations, read-out: Biochemical IC50 CREBBP. The method in brief: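 Reactions at 30 °C for 35 min, then Ni-chelate acceptor and streptavidin donor beads in HEPES pH 7.5, NaCl, Tween20, BSA, 60 min at room temperature. Eight-point compound series; IC50 by non-linear regression of percent inhibition.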
In general terms: In Alpha technology, singlet oxygen from a donor bead excites a nearby acceptor bead.

The structures appear in SMILES notation.

Sequence of BRD2 (His-Brd2(60-472)) (P25440 60-472): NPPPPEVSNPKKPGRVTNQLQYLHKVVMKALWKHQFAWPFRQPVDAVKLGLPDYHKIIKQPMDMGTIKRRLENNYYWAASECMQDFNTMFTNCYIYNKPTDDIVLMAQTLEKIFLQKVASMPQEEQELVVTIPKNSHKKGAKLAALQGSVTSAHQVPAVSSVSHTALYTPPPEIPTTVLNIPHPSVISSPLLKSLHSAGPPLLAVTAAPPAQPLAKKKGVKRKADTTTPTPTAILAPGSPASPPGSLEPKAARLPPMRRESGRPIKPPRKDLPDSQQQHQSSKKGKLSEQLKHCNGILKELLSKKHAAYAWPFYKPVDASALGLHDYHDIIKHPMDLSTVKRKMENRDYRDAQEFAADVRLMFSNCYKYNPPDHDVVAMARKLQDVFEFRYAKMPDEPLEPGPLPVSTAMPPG
Sequence of BRD3 (His-Brd3(20-477)) (Q15059 20-477): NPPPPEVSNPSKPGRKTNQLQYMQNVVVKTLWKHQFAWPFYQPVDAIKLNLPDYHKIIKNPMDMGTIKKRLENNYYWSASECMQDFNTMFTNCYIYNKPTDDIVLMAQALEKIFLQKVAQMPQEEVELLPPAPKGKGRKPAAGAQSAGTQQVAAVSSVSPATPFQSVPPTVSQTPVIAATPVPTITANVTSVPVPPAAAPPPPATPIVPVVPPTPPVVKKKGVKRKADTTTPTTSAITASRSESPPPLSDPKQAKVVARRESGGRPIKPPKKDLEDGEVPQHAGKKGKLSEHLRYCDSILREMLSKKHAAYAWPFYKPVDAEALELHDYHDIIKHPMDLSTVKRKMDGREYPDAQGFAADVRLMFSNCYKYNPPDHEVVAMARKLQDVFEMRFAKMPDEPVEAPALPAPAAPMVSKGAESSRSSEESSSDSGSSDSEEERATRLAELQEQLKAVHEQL
Sequence of CREBBP bromodomain (His-CREBBP(1081-1197)) (Q92793 1081-1197): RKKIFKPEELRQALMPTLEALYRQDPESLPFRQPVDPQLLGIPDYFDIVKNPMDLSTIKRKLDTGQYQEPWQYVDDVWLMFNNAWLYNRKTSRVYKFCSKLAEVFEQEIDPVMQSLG

As for `CC(=O)N1CC=C(c2nc3c(n2C(C)C)C(c2ccc(Cl)cc2)N(c2cc(C)c4nnc(C)n4c2)C3=O)CC1` (centres unmarked) [Example 66], the 50% inhibitory concentration (IC50) in experiment [1] was 31.5 nM; in experiment [2] it was 86 nM; in experiment [5] it was 66 nM; in experiment [7], 3450 nM. In addition, the GI50 came to 5540 nM in experiment [3], 1760 nM in experiment [4] and 232 nM in experiment [6]. For the same molecule, the “K-562 TGI” value in experiment [3] was above 10000 nM. Also, the “THP-1 TGI” value in experiment [4] was found to be 5860 nM. Besides, the “MV-4-11 TGI” value in experiment [6] was determined as 430 nM.
With `Cc1cc(N2C(=O)c3nc(C4=CCN(S(C)(=O)=O)CC4)n(C(C)C)c3C2c2ccc(Cl)cc2)cn2c(C)nnc12` (centres unmarked) [Example 67, 6-(4-chlorophenyl)-5-(3,8-dimethyl-[1,2,4]triazolo[4,3-a]pyridin-6-yl)-1-isopropyl-2-(1-(methylsulfonyl)-1,2,3,6-tetrahydropyridin-4-yl)-5,6-dihydropyrrolo[3,4-d]imidazol-4(1H)-one], the IC50 in experiment [1] turned out to be 17 nM; in experiment [2] it was 38 nM; in experiment [5], 20.5 nM; in experiment [7], 5200 nM. Moreover, the GI50 in experiment [3] was found to be 5400 nM; in experiment [4], 1280 nM; in experiment [6], 165 nM. Further, in experiment [3], the “K-562 TGI” value was above 10000 nM. In experiment [4], the “THP-1 TGI” value amounted to 3275 nM. In experiment [6], the “MV-4-11 TGI” value came to 332.5 nM.
Take `CCN1CC=C(c2nc3c(n2C(C)C)C(c2ccc(Cl)cc2)N(c2cc(C)c4nnc(C)n4c2)C3=O)CC1` (centres unmarked) [Example 68, 6-(4-chlorophenyl)-5-(3,8-dimethyl-[1,2,4]triazolo[4,3-a]pyridin-6-yl)-2-(1-ethyl-1,2,3,6-tetrahydropyridin-4-yl)-1-isopropyl-5,6-dihydropyrrolo[3,4-d]imidazol-4(1H)-one]: the IC50 was 30 nM in experiment [1], 77 nM in experiment [2], 44.5 nM in experiment [5] and 5000 nM in experiment [7]. The GI50 was found to be 1380 nM in experiment [3], 258 nM in experiment [4] and 21.3 nM in experiment [6]. In addition, the “K-562 TGI” value in experiment [3] is above 10000 nM. Further, in experiment [4], the “THP-1 TGI” value worked out at 458 nM. Moreover, the “MV-4-11 TGI” value in experiment [6] was 37.1 nM.
Consider `Cc1cc(N2C(=O)c3nc(C4=CCN(C(=O)OCC(C)C)CC4)n(C(C)C)c3C2c2ccc(Cl)cc2)cn2c(C)nnc12` (centres unmarked) [Example 69, isobutyl 4-(6-(4-chlorophenyl)-5-(3,8-dimethyl-[1,2,4]triazolo[4,3-a]pyridin-6-yl)-1-isopropyl-4-oxo-1,4,5,6-tetrahydropyrrolo[3,4-d]imidazol-2-yl)-5,6-dihydropyridine-1(2H)-carboxylate], for which the IC50 in experiment [1] is 12 nM; in experiment [2], 24 nM; in experiment [5] it was 13 nM; in experiment [7], 6100 nM. Besides, the GI50 is 184 nM in experiment [3], 63.4 nM in experiment [4] and 31.6 nM in experiment [6]. Also, in experiment [3], the “K-562 TGI” value is above 10000 nM. Besides, the “THP-1 TGI” value in experiment [4] is 167.5 nM. Also, in experiment [6], the “MV-4-11 TGI” value amounted to 58.45 nM.
As to `CCOC(=O)N1CC=C(c2nc3c(n2C(C)C)C(c2ccc(Cl)cc2)N(c2cc(C)c4nnc(C)n4c2)C3=O)CC1` (centres unmarked) [Example 70, ethyl 4-(6-(4-chlorophenyl)-5-(3,8-dimethyl-[1,2,4]triazolo[4,3-a]pyridin-6-yl)-1-isopropyl-4-oxo-1,4,5,6-tetrahydropyrrolo[3,4-d]imidazol-2-yl)-5,6-dihydropyridine-1(2H)-carboxylate], the IC50 in experiment [1] was found to be 17.5 nM; in experiment [2], 32 nM; in experiment [5], 17 nM; in experiment [7] it was 6650 nM. For the same molecule, the values for the GI50 in experiment [3], in experiment [4] and in experiment [6] were 353 nM, 59.9 nM and 29.6 nM, respectively. In addition, the “K-562 TGI” value in experiment [3] is above 10000 nM. Besides, the “THP-1 TGI” value in experiment [4] was 188 nM. The “MV-4-11 TGI” value in experiment [6] was determined as 41.3 nM.
For the molecule `Cc1cc(N2C(=O)c3nc(C4=CCN(C(=O)OC(C)C)CC4)n(C(C)C)c3C2c2ccc(Cl)cc2)cn2c(C)nnc12` (centres unmarked) [Example 71, isopropyl 4-(6-(4-chlorophenyl)-5-(3,8-dimethyl-[1,2,4]triazolo[4,3-a]pyridin-6-yl)-1-isopropyl-4-oxo-1,4,5,6-tetrahydropyrrolo[3,4-d]imidazol-2-yl)-5,6-dihydropyridine-1(2H)-carboxylate], the 50% inhibitory concentration (IC50) in experiment [1] came to 18.5 nM; in experiment [2], 33 nM; in experiment [5], 18 nM; in experiment [7], 4300 nM. Moreover, the values for the GI50 in experiment [3], in experiment [4] and in experiment [6] were 228 nM, 63.7 nM and 31.3 nM, respectively. Also, the “K-562 TGI” value in experiment [3] was above 10000 nM. In addition, the “THP-1 TGI” value in experiment [4] worked out at 138.5 nM. In experiment [6], the “MV-4-11 TGI” value was 44.5 nM.
As to `Cc1cc(N2C(=O)c3nc(C4=CCN(C(=O)NC(C)(C)C)CC4)n(C(C)C)c3C2c2ccc(Cl)cc2)cn2c(C)nnc12` (centres unmarked) [Example 72, N-(tert-butyl)-4-(6-(4-chlorophenyl)-5-(3,8-dimethyl-[1,2,4]triazolo[4,3-a]pyridin-6-yl)-1-isopropyl-4-oxo-1,4,5,6-tetrahydropyrrolo[3,4-d]imidazol-2-yl)-5,6-dihydropyridine-1(2H)-carboxamide], the concentration for half-maximal inhibition (IC50) is 12 nM in experiment [1], 23 nM in experiment [2], below 11 nM in experiment [5] and 5100 nM in experiment [7]. Moreover, the GI50 turned out to be 1340 nM in experiment [3], 222 nM in experiment [4] and 45.8 nM in experiment [6]. Moreover, the “K-562 TGI” value in experiment [3] was above 10000 nM. Also, the “THP-1 TGI” value in experiment [4] turned out to be 746 nM. In addition, the “MV-4-11 TGI” value in experiment [6] is 96.9 nM.
Turning to `COc1cc(N2C(=O)c3nc(C4=CCN(C)CC4)n(C(C)C)c3C2c2ccc(Cl)cc2)cc2c1nnn2C` (centres unmarked) [Example 73], the IC50 in experiment [1] came out at 58 nM; in experiment [2], 150 nM; in experiment [5], 92.5 nM; in experiment [7], 16100 nM. For the same molecule, the GI50 in experiment [3] turned out to be 300 nM; in experiment [4], 93.6 nM; in experiment [6] it was 30.6 nM. Also, the “K-562 TGI” value in experiment [3] is above 10000 nM. Further, the “THP-1 TGI” value in experiment [4] stood at 254.5 nM. For the same molecule, in experiment [6], the “MV-4-11 TGI” value was 52.7 nM.
With `Cc1cc(N2C(=O)c3nc(C4CCNCC4)n(C(C)C)c3C2c2ccc(Cl)cc2)cn2c(C)nnc12` (centres unmarked) [Example 75, 6-(4-chlorophenyl)-5-(3,8-dimethyl-[1,2,4]triazolo[4,3-a]pyridin-6-yl)-1-isopropyl-2-(Piperidin-4-yl)-5,6-dihydropyrrolo[3,4-d]imidazol-4(1H)-one], the IC50 in experiment [1] is 17 nM; in experiment [2], 27 nM; in experiment [5], 24 nM; in experiment [7], 4900 nM. Further, the GI50 in experiment [3] is 8650 nM; in experiment [4], 1600 nM; in experiment [6], 780 nM. Besides, in experiment [3], the “K-562 TGI” value is above 10000 nM. Besides, the “THP-1 TGI” value in experiment [4] came to 8630 nM. In experiment [6], the “MV-4-11 TGI” value amounted to 1125 nM.
With `COC(=O)N1CCC(c2nc3c(n2C(C)C)C(c2ccc(Cl)cc2)N(c2cc(C)c4nnc(C)n4c2)C3=O)CC1` (centres unmarked) [Example 76, methyl 4-(6-(4-chlorophenyl)-5-(3,8-dimethyl-[1,2,4]triazolo[4,3-a]pyridin-6-yl)-1-isopropyl-4-oxo-1,4,5,6-tetrahydropyrrolo[3,4-d]imidazol-2-yl)piperidine-1-carboxylate], the IC50 in experiment [1] is 54 nM; in experiment [2], 97 nM; in experiment [5], 64 nM; in experiment [7], 2050 nM. Also, the 50% growth inhibitory concentration (GI50) was determined as 314 nM in experiment [3], 95.7 nM in experiment [4] and 23.3 nM in experiment [6]. Further, the “K-562 TGI” value in experiment [3] is above 10000 nM. The “THP-1 TGI” value in experiment [4] stood at 266 nM. In addition, the “MV-4-11 TGI” value in experiment [6] came to 38.8 nM.
For `Cc1cc(N2C(=O)c3nc(C4=CCN(C)CC4)n(C(C)C)c3C2c2ccc(Cl)cc2)cc2c1nnn2C` (centres unmarked) [Example 78, 6-(4-chlorophenyl)-5-(1,4-dimethyl-1H-benzo[d][1,2,3]triazol-6-yl)-1-isopropyl-2-(1-methyl-1,2,3,6-tetrahydropyridin-4-yl)-5,6-dihydropyrrolo[3,4-d]imidazol-4(1H)-one], the IC50 is 28 nM in experiment [1], 48 nM in experiment [2], 31 nM in experiment [5] and 4300 nM in experiment [7]. Moreover, the GI50 in experiment [3] is 49.6 nM; in experiment [4], 14.4 nM; in experiment [6], 4.54 nM. For the same molecule, the “K-562 TGI” value in experiment [3] is above 10000 nM. The “THP-1 TGI” value in experiment [4] amounted to 38.8 nM. Further, the “MV-4-11 TGI” value in experiment [6] was found to be 9.58 nM.

The values are drawn from patent publication US9890166B2, “Imidazopyrrolidine derivatives and their use in the treatment of disease” (NOVARTIS AG, priority 2013, dated 2018).
